Key:
CcrZ (YtmP) [1] = target: T1, CcrZ (YtmP) (Bacillus subtilis, UniProt C0SPC1); test: ADP-Glo ATPase assay (proxy for kinase activity); type: biochemical; conditions: 0.1 mM ATP, 37 °C, 30 min, product not identified
T1 construct: full length, 6xHis-SUMO tag cleaved by SUMO protease, expressed in E. coli; monomer ~30 kDa; selenomethionine derivative for the crystal
T1 sequence (C0SPC1 1-269): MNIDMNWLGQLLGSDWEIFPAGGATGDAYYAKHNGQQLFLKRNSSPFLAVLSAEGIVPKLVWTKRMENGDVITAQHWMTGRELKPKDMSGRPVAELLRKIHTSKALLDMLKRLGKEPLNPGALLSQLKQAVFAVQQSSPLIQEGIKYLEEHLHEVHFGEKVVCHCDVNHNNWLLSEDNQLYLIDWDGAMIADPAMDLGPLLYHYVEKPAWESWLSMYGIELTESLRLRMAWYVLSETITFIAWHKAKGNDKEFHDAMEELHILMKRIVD

CcrZ (YtmP) [2] = target: T1, CcrZ (YtmP); test: X-ray crystallography, SAD, […] Å; type: binding; conditions: selenomethionine derivative; pH 5.84, PEG 6000, 1 M LiCl, MgCl2 and D-ribose added but not seen; adenine in ATP pocket, phosphates turned to solvent (non-catalytic pose)
LicA = target: T2, LicA (Streptococcus pneumoniae, UniProt Q8DPI4); test: ADP-Glo ATPase assay (proxy for kinase activity); type: biochemical; conditions: 1.25 mM choline, 0.1 mM ATP, 37 °C, 30 min
T2 construct: gene pck; gene codon optimized for B. subtilis, pE-SUMO-kan vector, SUMO tag cleaved, expressed in E. coli BL21
T2 sequence (Q8DPI4 entry or part of it): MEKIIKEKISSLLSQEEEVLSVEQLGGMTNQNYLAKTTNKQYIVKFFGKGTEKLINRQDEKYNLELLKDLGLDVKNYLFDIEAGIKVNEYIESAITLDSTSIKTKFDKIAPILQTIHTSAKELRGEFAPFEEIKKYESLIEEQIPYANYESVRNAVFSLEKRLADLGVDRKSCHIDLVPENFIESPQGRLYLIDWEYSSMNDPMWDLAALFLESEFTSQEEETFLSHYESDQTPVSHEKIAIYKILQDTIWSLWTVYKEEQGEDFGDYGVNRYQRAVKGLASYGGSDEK

OC[C@H]1OC(O)C[C@@H]1O (stereo partly drawn) [2-deoxy-D-ribose]
ADP-Glo ATPase assay (proxy for kinase activity) (CcrZ (YtmP) [1]; 5 mM 2-deoxy-ribose): CcrZ ATPase activity was stimulated in the presence of D-ribose and 2-deoxy-D-ribose

Nc1ncnc2c1ncn2[C@@H]1O[C@H](COP(=O)(O)OP(=O)(O)NP(=O)(O)O)[C@@H](O)[C@H]1O [AMP-PNP]
X-ray crystallography, SAD, 2.6 Å (CcrZ (YtmP) [2]): we solved the crystal structure of B. subtilis CcrZ bound to AMP-PNP

OC1OC[C@@H](O)[C@@H](O)[C@H]1O (stereo partly drawn) [D-ribose]
ADP-Glo ATPase assay (proxy for kinase activity) (CcrZ (YtmP) [1]; 5 mM D-ribose): CcrZ ATPase activity was stimulated in the presence of D-ribose and 2-deoxy-D-ribose

C[N+](C)(C)CCO [choline]
ADP-Glo ATPase assay (proxy for kinase activity) (LicA): CcrZ does not have activity on choline while LicA shows robust activity

Source: article PMC9135335, “Structure and kinase activity of bacterial cell cycle regulator CcrZ” (PLoS Genetics, 2022)
